In paper PMC4230996 (Journal of Medicinal Chemistry, 2014):

Tests used:
[1] = test system: mGlu4; settings: read-out: hEC50; human mGlu4 PAM potency; cited from earlier work
[2] = biological target: mGlu4 (Rattus norvegicus, UniProt P31423); test: PET imaging of [^18F]3 in rats, baseline and blocking studies; assay type: in vivo, rat (male Sprague–Dawley); settings: blocking agent 10 mg/kg injected 5 min before [^18F]3; uptake as area under TAC
[3] = biological target: mGlu8 (Homo sapiens, UniProt O00222); test: selectivity test, split luciferase biosensor cAMP assay in transfected CHO cells; assay type: cell-based; settings: single concentration 10 μM
[4] = test system: mGlu1a; test: selectivity functional assay, IPs accumulation in CHO cells; assay type: cell-based; settings: single concentration 10 μM
[5] = stability of 3 in neutral and acidic media by LC–MS; assay type: physicochemical
[6] = test system: mGlu5a; test: selectivity functional assay, IPs accumulation in CHO cells; assay type: cell-based; settings: single concentration 10 μM
[7] = test system: human mGlu4; settings: read-out: IC50 (binding affinity to mGlu4); human mGlu4, Merck's patent; cited from earlier work

Chain of mGlu4 (Rattus norvegicus, UniProt P31423) (P31423 33-912): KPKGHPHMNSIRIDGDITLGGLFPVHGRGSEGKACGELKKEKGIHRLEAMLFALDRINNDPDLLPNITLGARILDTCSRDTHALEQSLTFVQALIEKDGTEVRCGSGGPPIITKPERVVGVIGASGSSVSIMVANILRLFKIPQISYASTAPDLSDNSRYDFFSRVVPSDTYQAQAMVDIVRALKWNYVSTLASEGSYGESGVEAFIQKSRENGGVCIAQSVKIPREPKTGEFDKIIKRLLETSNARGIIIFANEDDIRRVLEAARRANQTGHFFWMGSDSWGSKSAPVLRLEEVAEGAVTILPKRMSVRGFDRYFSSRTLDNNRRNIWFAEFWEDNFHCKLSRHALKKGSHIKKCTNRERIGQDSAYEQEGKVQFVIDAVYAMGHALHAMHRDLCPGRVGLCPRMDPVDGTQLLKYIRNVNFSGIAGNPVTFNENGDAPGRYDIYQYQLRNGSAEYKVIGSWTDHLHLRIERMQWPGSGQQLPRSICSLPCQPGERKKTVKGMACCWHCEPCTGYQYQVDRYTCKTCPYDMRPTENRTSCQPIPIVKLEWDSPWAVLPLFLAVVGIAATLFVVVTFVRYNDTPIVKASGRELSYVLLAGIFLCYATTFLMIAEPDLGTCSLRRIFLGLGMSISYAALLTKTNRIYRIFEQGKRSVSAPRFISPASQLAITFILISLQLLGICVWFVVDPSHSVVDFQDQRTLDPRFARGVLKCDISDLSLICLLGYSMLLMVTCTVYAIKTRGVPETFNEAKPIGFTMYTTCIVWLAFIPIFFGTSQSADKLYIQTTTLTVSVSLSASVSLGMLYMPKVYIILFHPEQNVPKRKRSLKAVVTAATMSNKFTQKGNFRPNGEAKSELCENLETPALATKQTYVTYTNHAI
Chain of mGlu8 (O00222 34-908): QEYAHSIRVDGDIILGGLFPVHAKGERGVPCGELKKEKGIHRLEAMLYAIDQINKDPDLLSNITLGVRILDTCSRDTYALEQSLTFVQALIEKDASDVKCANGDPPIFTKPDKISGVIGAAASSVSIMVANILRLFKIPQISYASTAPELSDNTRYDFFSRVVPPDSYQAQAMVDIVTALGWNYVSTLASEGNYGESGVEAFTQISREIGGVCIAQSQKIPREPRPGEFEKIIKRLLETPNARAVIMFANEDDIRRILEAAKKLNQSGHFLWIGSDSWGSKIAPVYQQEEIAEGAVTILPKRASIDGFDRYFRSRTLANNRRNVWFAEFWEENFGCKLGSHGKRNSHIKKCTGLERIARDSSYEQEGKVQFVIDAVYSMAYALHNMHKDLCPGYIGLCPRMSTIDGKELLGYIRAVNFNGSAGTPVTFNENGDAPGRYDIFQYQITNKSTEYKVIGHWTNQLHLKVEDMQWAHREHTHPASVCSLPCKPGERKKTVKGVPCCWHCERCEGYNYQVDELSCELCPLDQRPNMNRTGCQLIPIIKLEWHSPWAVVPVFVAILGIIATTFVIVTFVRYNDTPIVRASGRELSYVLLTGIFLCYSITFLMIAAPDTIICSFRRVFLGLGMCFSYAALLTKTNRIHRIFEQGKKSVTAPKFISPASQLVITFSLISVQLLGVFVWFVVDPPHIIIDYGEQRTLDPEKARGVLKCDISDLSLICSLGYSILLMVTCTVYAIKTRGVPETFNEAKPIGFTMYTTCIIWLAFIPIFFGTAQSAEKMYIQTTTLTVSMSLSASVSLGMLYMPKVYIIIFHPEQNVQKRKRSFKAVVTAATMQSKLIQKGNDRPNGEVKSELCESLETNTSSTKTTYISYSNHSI

## O=C(Nc1cccc(OC(F)F)c1)c1ccccn1 [Compound 2, N-(3-(difluoromethoxy)phenyl)-2-picolinamide]
[2]
  reduced uptake of [^18F]3 in rat brain regions (blocking effect): 10–20%

## O=C(Nc1ccc(N2C(=O)c3cccc(F)c3C2=O)c(Cl)c1)c1ccccn1 [Compound 3, N-(3-Chloro-4-(4-fluoro-1,3-dioxoisoindolin-2-yl)phenyl)-2-picolinamide]
[3]
  agonist or antagonist activity at mGlu8: little activity
[4]
  agonist or antagonist activity at mGlu1: little activity
[5]; 0.1 M ammonium formate water–acetonitrile solution
  stability in neutral media: two side products were detected
[5]; acidic media
  stability in acidic media: minimal hydrolysis products
[6]
  agonist or antagonist activity at mGlu5: little activity

## Cc1cccc2c1C(=O)N(c1ccc(NC(=O)c3ccccn3)cc1Br)C2=O [Compound 5]
[1]
  EC50: 101 nM
[7]
  IC50: 12 nM
